Test results as given in ChEMBL document CHEMBL4507302, “Data for DCP probe TP-020” (2021).
Calls of active or inactive are those of the source. No cut-off for these calls is given here.

Assays:
[1] = target: Ephrin type-B receptor 2 (Homo sapiens) (UniProt P29323); details: Compound concentration 1000.0 nM
[2] = target: Mitogen-activated protein kinase 7 (Homo sapiens) (UniProt Q13164); details: Compound concentration 1000.0 nM
[3] = target: G protein-coupled receptor kinase 4 (Homo sapiens) (UniProt P32298); details: Compound concentration 1000.0 nM
[4] = target: Serine/threonine-protein kinase 26 (Homo sapiens) (UniProt Q9P289); details: Compound concentration 1000.0 nM
[5] = target: Phosphatidylinositol 4-phosphate 5-kinase type-1 alpha (Homo sapiens) (UniProt Q99755); details: Compound concentration 1000.0 nM
[6] = target: Ribosomal protein S6 kinase alpha-6 (Homo sapiens) (UniProt Q9UK32); details: Compound concentration 1000.0 nM
[7] = target: 5-hydroxytryptamine receptor 1A (Homo sapiens) (UniProt P08908); details: Compound concentration 10.0 uM
[8] = target: Beta-1 adrenergic receptor (Homo sapiens) (UniProt P08588); details: Compound concentration 10.0 uM
[9] = target: Muscarinic acetylcholine receptor M1 (Homo sapiens) (UniProt P11229); details: Compound concentration 10.0 uM
[10] = target: Muscarinic acetylcholine receptor M2 (Homo sapiens) (UniProt P08172); details: Compound concentration 10.0 uM
[11] = target: Beta-3 adrenergic receptor (Homo sapiens) (UniProt P13945); details: Compound concentration 10.0 uM
[12] = target: 5-hydroxytryptamine receptor 1D (Homo sapiens, UniProt P28221); assay: GPCRScan assay: inhibition of 5-HT1D; design: radioligand conc. used [nm] 1.0 – 2.0, parental cells HEKT
[13] = target: Sigma intracellular receptor 2 (Homo sapiens, UniProt Q5BJF2); assay: GPCRScan assay: inhibition of Sigma 2; design: radioligand conc. used [nm] 5.0, parental cells HEKT
[14] = target: Diacylglycerol O-acyltransferase 1 (Homo sapiens, UniProt O75907); assay: Thin Layer Chromatography (TLC) assay (human DGAT1)
[15] = target: Diacylglycerol O-acyltransferase 2 (Homo sapiens, UniProt Q96PD7); assay: Thin Layer Chromatography (TLC) assay (human DGAT2)
[16] = target: 5-hydroxytryptamine receptor 2C (Homo sapiens) (UniProt P28335); details: Compound concentration 10.0 uM
[17] = target: 5-hydroxytryptamine receptor 6 (Homo sapiens) (UniProt P50406); details: Compound concentration 10.0 uM
[18] = target: Alpha-1A adrenergic receptor (Homo sapiens) (UniProt P35348); details: Compound concentration 10.0 uM
[19] = target: Alpha-2A adrenergic receptor (Homo sapiens) (UniProt P08913); details: Compound concentration 10.0 uM
[20] = target: Alpha-2C adrenergic receptor (Homo sapiens) (UniProt P18825); details: Compound concentration 10.0 uM
[21] = target: Muscarinic acetylcholine receptor M3 (Homo sapiens) (UniProt P20309); details: Compound concentration 10.0 uM
[22] = target: Sigma non-opioid intracellular receptor 1 (Homo sapiens) (UniProt Q99720); details: Compound concentration 10.0 uM
[23] = target: Diacylglycerol O-acyltransferase 2-like protein MOGAT2 (Homo sapiens) (UniProt Q3SYC2); assay: RapidFire/MS assay (human MGAT2)
Mogat2 (Mus musculus) = assay: RapidFire/MS assay (mouse MGAT2)

Sequence of Ephrin type-B receptor 2 (Homo sapiens) (P29323 whole entry): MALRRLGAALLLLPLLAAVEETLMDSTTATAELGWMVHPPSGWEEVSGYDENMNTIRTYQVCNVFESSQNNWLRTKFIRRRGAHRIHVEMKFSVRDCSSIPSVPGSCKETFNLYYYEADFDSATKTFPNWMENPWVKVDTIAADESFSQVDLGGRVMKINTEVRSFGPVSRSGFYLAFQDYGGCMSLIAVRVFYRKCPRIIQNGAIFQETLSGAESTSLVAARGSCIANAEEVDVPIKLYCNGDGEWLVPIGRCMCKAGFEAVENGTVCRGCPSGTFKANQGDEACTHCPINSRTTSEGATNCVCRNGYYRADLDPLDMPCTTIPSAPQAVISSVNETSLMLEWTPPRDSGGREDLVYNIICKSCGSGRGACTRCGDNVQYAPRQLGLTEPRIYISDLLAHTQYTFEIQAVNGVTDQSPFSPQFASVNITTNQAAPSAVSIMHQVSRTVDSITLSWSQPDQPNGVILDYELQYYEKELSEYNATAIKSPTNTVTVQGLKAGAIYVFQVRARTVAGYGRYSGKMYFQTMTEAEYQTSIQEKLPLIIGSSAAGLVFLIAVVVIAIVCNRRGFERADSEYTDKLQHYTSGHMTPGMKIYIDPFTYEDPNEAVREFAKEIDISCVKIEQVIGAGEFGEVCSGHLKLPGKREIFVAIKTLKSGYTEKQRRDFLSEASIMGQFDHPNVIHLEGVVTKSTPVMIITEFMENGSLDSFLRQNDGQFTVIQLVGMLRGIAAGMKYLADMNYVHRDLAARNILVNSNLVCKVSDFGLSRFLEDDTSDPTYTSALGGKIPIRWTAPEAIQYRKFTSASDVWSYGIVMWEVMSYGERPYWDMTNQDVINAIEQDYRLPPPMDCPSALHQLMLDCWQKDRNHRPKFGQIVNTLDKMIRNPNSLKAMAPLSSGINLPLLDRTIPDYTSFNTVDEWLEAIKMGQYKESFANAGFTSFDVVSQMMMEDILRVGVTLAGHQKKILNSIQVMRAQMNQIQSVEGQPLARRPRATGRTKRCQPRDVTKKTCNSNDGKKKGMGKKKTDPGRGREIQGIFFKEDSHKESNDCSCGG
Sequence of Mitogen-activated protein kinase 7 (Homo sapiens) (Q13164 2-816 limits assumed): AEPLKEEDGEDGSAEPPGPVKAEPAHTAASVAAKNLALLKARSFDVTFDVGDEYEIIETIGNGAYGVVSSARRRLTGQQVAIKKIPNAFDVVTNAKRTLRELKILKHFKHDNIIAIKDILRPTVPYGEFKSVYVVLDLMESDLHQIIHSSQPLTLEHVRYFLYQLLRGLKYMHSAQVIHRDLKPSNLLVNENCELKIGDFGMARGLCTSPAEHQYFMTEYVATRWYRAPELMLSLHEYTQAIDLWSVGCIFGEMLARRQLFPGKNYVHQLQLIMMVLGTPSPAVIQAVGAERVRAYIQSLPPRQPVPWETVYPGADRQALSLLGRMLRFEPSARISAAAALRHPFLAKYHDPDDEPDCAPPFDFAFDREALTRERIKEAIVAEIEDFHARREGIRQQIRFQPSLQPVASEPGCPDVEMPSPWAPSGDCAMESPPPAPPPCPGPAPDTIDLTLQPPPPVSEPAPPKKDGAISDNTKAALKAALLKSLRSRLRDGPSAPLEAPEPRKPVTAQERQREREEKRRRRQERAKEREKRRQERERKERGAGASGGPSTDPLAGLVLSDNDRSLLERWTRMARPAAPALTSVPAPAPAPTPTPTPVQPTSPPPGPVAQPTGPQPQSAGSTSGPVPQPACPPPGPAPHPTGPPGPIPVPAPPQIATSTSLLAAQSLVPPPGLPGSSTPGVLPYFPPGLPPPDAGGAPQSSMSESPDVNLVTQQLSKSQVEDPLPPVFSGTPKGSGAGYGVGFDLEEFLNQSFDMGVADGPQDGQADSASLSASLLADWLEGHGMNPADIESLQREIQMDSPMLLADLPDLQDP
Sequence of 5-hydroxytryptamine receptor 1D (P28221 whole entry): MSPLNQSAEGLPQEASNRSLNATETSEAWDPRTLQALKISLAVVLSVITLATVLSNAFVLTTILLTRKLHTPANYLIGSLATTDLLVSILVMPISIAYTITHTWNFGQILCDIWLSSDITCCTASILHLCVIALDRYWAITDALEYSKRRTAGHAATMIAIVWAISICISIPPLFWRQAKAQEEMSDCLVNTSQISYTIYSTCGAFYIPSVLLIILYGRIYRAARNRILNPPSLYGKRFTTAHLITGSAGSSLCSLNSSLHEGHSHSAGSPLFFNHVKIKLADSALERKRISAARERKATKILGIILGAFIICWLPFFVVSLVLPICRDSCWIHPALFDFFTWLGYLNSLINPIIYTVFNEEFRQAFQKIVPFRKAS
Sequence of G protein-coupled receptor kinase 4 (Homo sapiens) (P32298 whole entry, looked up): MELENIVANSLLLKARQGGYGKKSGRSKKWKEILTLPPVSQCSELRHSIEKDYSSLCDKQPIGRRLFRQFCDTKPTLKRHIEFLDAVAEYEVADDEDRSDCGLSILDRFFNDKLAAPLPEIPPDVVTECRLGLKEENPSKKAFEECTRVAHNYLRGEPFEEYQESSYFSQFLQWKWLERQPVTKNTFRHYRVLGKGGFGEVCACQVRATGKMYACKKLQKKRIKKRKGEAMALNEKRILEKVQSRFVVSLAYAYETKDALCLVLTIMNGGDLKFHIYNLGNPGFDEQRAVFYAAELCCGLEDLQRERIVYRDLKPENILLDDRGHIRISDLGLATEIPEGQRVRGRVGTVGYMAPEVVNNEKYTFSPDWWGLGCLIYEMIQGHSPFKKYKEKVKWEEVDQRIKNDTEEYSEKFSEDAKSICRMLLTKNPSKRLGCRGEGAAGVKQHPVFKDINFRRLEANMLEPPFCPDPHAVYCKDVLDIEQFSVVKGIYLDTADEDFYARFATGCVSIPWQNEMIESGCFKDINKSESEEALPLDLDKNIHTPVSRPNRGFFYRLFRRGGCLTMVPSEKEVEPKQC
Sequence of Ribosomal protein S6 kinase alpha-6 (Homo sapiens) (Q9UK32 whole entry): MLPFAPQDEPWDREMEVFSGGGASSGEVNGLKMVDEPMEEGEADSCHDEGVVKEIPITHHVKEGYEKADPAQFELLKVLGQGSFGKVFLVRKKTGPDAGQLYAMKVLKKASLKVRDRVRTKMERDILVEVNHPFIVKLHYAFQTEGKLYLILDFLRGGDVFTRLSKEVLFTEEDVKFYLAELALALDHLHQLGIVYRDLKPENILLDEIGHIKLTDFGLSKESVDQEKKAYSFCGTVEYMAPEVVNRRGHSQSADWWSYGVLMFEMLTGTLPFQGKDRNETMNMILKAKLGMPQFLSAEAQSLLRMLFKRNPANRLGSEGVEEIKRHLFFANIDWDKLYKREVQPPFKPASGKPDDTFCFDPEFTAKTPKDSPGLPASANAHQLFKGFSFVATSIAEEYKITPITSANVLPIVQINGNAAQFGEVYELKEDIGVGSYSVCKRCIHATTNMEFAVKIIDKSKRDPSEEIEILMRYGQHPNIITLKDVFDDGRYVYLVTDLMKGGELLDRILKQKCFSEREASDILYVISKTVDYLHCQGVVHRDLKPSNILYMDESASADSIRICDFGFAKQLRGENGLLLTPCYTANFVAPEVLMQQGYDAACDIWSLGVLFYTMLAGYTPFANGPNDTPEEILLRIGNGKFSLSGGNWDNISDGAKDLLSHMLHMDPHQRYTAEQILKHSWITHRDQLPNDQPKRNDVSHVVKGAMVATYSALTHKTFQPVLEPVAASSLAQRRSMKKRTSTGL
Sequence of Serine/threonine-protein kinase 26 (Homo sapiens) (Q9P289 2-416 limits assumed): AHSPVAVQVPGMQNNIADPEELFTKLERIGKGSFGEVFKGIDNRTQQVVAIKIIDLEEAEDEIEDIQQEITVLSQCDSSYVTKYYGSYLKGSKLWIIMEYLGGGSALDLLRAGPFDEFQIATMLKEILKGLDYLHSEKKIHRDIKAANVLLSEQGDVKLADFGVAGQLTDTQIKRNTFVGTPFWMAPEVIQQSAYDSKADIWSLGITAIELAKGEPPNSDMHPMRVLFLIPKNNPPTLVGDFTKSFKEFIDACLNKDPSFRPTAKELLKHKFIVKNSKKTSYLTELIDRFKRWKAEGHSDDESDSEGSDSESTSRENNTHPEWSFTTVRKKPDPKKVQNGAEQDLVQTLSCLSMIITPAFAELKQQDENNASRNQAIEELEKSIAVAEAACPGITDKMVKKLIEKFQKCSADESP
Sequence of Phosphatidylinositol 4-phosphate 5-kinase type-1 alpha (Homo sapiens) (Q99755 whole entry): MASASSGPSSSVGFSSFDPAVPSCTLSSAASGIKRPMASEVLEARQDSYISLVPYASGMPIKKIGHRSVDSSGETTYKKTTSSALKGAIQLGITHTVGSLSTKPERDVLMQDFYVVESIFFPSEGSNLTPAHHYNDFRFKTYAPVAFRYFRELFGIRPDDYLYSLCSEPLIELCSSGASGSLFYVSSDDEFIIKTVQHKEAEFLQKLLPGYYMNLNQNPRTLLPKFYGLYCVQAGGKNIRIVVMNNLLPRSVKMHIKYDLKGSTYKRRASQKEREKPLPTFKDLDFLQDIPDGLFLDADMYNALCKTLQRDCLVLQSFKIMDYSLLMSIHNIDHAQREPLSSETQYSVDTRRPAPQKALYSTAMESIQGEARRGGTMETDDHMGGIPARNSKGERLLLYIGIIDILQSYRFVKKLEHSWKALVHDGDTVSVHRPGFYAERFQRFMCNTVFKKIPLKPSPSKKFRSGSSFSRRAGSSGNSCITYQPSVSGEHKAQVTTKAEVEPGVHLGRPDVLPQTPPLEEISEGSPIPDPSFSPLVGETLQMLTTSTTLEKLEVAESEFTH
Sequence of Sigma non-opioid intracellular receptor 1 (Homo sapiens) (Q99720 whole entry): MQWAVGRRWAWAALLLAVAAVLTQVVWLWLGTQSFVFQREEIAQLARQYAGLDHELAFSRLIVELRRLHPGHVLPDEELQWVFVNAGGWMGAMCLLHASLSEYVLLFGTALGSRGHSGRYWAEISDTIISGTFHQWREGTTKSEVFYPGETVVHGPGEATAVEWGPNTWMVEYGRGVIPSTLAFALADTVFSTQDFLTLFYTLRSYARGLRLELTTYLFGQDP
Sequence of Sigma intracellular receptor 2 (Q5BJF2 whole entry): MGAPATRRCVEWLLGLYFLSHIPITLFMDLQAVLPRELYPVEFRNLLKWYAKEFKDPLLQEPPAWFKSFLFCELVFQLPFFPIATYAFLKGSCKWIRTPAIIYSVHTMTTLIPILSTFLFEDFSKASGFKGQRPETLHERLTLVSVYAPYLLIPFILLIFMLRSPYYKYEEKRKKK

Work on Nc1cnc(N2CCc3cc(S(=O)(=O)Nc4c(F)cc(Cl)cc4F)cc(N4CCCC4=O)c32)nc1 yielded a residual activity [1] of 87%, a residual activity [2] of 100% and a residual activity [3] of 100%. For the same compound, the residual activity [4] was 83%, the residual activity [5] was 100% and the residual activity [6] was 86%. For the same compound, the inhibition [7] was 4.45%, the inhibition [8] was 8.84% and the inhibition [9] was -9.48%. For the same compound, the inhibition [10] was 3.7% and the inhibition [11] was -2.69%.
Cn1nc(C(F)(F)F)cc1-c1cnc(N2CCc3cc(S(=O)(=O)Nc4c(F)cc(Cl)cc4F)cc(N4CCCC4=O)c32)nc1 [TP-020] gave a Ki ([12]; read-out: Ki) of 4.66 µM, a Ki ([12]; read-out: pKi (converted)) of 4.57 µM and a Ki [13] of 10 µM. For the same compound, the IC50 [14] was > 30 µM (not active), the IC50 [15] was > 30 µM (not active) and the residual activity [1] was 100%. The residual activity [2] was 100%, the residual activity [3] was 100% and the residual activity [4] was 73%. It also gave a residual activity [5] of 100%, a residual activity [6] of 85% and an inhibition [16] of 31%. For the same compound, the inhibition [17] was 6.67%, the inhibition [18] was 6.96% and the inhibition [19] was -9.1%. The inhibition [20] was 17.9%, the inhibition [21] was 7.26% and the inhibition [22] was 12.8%. The IC50 [23] was 0.0078 µM (active) and the IC50 (Mogat2 (Mus musculus)) was 0.0024 µM (active).
